Test results published in US20250214983A1, “1,3,4-OXADIAZOLE TRIAZOLE COMPOUNDS AS HISTONE DEACETYLASE 6 INHIBITOR, AND PHARMACEUTICAL COMPOSITION COMPRISING THE SAME” (Chong Kun Dang Pharmaceutical Corp., priority 2022, published 2025).

Legend:
[1] = biological target: T1, human recombinant HDAC6 (Homo sapiens, UniProt Q9UBN7); assay: HDAC6 enzyme activity inhibition (HDAC Fluorimetric Drug Discovery Kit); assay type: biochemical; settings: HDAC1 versus HDAC6
T1 construct: purchased Calbiochem Inc. 382180
T1 sequence (Q9UBN7 1-1215): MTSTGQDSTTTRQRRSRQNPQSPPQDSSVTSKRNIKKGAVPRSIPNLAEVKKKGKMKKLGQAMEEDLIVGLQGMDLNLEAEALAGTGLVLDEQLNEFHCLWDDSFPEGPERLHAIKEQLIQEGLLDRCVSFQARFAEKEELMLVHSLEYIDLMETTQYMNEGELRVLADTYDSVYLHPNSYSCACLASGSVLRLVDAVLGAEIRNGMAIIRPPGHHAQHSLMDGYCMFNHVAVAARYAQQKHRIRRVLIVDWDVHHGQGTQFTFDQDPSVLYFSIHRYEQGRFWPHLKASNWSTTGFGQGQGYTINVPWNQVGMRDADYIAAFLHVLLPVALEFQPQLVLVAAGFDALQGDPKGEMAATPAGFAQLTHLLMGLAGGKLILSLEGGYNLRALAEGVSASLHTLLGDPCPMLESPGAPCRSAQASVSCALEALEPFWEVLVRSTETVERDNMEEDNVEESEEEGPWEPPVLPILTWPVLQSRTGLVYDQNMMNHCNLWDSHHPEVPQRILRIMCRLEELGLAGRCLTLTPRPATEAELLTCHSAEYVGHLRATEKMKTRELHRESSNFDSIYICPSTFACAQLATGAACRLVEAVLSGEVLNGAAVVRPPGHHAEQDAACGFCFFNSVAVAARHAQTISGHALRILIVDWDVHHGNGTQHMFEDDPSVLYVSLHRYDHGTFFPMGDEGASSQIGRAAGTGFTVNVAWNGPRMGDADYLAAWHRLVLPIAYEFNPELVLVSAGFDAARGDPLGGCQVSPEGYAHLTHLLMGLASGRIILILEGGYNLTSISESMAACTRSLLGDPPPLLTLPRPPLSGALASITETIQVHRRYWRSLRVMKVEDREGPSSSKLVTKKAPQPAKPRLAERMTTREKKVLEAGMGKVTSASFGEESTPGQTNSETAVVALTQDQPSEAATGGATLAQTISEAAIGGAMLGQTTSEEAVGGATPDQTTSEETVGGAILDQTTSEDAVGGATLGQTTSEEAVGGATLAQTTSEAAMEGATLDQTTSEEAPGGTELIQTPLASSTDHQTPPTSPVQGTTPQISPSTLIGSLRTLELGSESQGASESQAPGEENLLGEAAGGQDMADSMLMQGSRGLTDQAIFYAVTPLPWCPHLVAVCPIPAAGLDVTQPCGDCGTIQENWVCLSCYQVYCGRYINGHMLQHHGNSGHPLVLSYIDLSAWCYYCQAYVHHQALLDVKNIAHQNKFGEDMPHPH
Protocol: (§1) An experiment was conducted to identify the selectivity of the 1,3,4-oxadiazole triazole compound of the present invention to HDAC6 through an experiment on HDAC1 and HDAC6 enzyme activity inhibition.
(§2) The HDAC enzyme activity was measured with HDAC Fluorimetric Drug Discovery Kit (BML-AK511, 516) of Enzo Life Science, Inc. For the test on the HDAC1 enzyme activity, human recombinant HDAC1 (BML-SE456) was used as an enzyme source and Fluor de Lys®-“SIRT1 (BNL-KI177)” was used as a substrate. A 5-fold dilution of the compound was divided into a 96-well plate, after which 0.3 μg of the enzyme and 10 μM of the substrate were inserted into each well and subjected to reaction at 30° C. for 60 minutes, such that Fluor de Lys® Developer II (BML-KI176) was inserted thereinto and subjected to reaction for 30 minutes and finished. After that, a fluorescence value (Ex 360, Em 460) was measured with a multi-plate reader (Flexstation 3, Molecular Device). An experiment on HDAC6 enzyme was conducted in accordance with the same protocol as in the HDAC1 enzyme activity test method by using human recombinant HDAC6 (382180) of Calbiochem Inc. For final result values, each IC50 value was calculated with GraphPad Prism 4.0 program.

[2] = biological target: T2, human recombinant HDAC1 (Homo sapiens, UniProt Q13547); assay: HDAC1 enzyme activity inhibition (HDAC Fluorimetric Drug Discovery Kit); assay type: biochemical; settings: human recombinant HDAC1, Fluor de Lys substrate 10 μM, 30° C. 60 minutes
T2 construct: purchased Enzo Life Science, Inc. BML-SE456
T2 sequence (Q13547 whole entry): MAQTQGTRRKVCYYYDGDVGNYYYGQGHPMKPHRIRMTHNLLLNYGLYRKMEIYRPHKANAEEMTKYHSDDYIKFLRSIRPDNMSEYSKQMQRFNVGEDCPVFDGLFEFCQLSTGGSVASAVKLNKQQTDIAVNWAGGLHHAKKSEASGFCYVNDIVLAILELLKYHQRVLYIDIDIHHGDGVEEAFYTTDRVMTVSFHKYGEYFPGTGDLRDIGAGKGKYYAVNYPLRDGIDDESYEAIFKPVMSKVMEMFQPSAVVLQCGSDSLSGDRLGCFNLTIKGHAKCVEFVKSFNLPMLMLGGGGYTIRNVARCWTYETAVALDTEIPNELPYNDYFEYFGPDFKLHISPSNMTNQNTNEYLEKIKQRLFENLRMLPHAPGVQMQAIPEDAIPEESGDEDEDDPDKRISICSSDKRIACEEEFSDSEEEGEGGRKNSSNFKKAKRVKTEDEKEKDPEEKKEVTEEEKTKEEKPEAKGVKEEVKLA
Protocol: as §1, §2

Row | SMILES | HDAC6 selectivity (fold) [1] [fold] | IC50 [2] [µM]
1 | FC(F)c1nnc(-c2ccc(Cn3cc(-c4ccc(CN5CCC5)cn4)nn3)nc2)o1 [Compound 2, 2-(6-((4-(5-(azetidin-1-ylmethyl)pyridin-2-yl)-1H-1,2,3-triazol-1-yl)methyl)pyridin-3-yl)-5-(difluoromethyl)-1,3,4-oxadiazole] | 2252 | > 50
2 | FC(F)c1nnc(-c2ccc(Cn3cc(-c4ccc(CN5CCCC5)cn4)nn3)nc2)o1 [Compound 3, 2-(difluoromethyl)-5-(6-((4-(5-(pyrrolidin-1-ylmethyl)pyridin-2-yl)-1H-1,2,3-triazol-1-yl)methyl)pyridin-3-yl)-1,3,4-oxadiazole] | 1712 | > 50
3 | FC(F)c1nnc(-c2ccc(Cn3cc(-c4ccc(CN5CC[C@@H](F)C5)nc4)nn3)nc2)o1 [Compound 5, (R)-2-(difluoromethyl)-5-(6-((4-(6-((3-fluoropyrrolidin-1-yl)methyl)pyridin-3-yl)-1H-1,2,3-triazol-1-yl)methyl)pyridin-3-yl)-1,3,4-oxadiazole] | 1547 | > 50
4 | FC(F)c1nnc(-c2ccc(Cn3cc(-c4ccc(CN5CC[C@H](F)C5)s4)nn3)nc2)o1 [Compound 7, (S)-2-(difluoromethyl)-5-(6-((4-(5-((3-fluoropyrrolidin-1-yl)methyl)thiophen-2-yl)-1H-1,2,3-triazol-1-yl)methyl)pyridin-3-yl)-1,3,4-oxadiazole] | 1253 | > 50
5 | FC(F)c1nnc(-c2ccc(Cn3cc(-c4ccc(CN5CC[C@@H](F)C5)s4)nn3)nc2)o1 [Compound 8, (R)-2-(difluoromethyl)-5-(6-((4-(5-((3-fluoropyrrolidin-1-yl)methyl)thiophen-2-yl)-1H-1,2,3-triazol-1-yl)methyl)pyridin-3-yl)-1,3,4-oxadiazole] | 1048 | > 50
6 | CN(C)Cc1cc(-c2cn(Cc3ccc(-c4nnc(C(F)F)o4)cn3)nn2)cs1 [Compound 11, 1-(4-(1-((5-(5-(difluoromethyl)-1,3,4-oxadiazol-2-yl)pyridin-2-yl)methyl)-1H-1,2,3-triazol-4-yl)thiophen-2-yl)-N,N-dimethylmethanamine] | 1577 | > 50
7 | FC(F)c1nnc(-c2ccc(Cn3cc(-c4csc(CN5CC[C@H](F)C5)c4)nn3)nc2)o1 [Compound 13, (S)-2-(difluoromethyl)-5-(6-((4-(5-((3-fluoropyrrolidin-1-yl)methyl)thiophen-3-yl)-1H-1,2,3-triazol-1-yl)methyl)pyridin-3-yl)-1,3,4-oxadiazole] | 1893 | > 50
8 | CC1(C)CCN(Cc2ccc(-c3cn(Cc4ccc(-c5nnc(C(F)F)o5)cn4)nn3)nc2)CC1 [Compound 17, 2-(difluoromethyl)-5-(6-((4-(5-((4,4-dimethylpiperidin-1-yl)methyl)pyridin-2-yl)-1H-1,2,3-triazol-1-yl)methyl)pyridin-3-yl)-1,3,4-oxadiazole] | 1466 | > 50
9 | Fc1ccc(CN2CCCCC2)cc1-c1cn(Cc2ccc(-c3nnc(C(F)F)o3)cn2)nn1 [Compound 18, 2-(difluoromethyl)-5-(6-((4-(2-fluoro-5-(piperidin-1-ylmethyl)phenyl)-1H-1,2,3-triazol-1-yl)methyl)pyridin-3-yl)-1,3,4-oxadiazole] | 1845 | > 50
10 | CN(C)Cc1ccc(F)c(-c2cn(Cc3ccc(-c4nnc(C(F)F)o4)cn3)nn2)c1 [Compound 20, 1-(3-(1-((5-(5-(difluoromethyl)-1,3,4-oxadiazol-2-yl)pyridin-2-yl)methyl)-1H-1,2,3-triazol-4-yl)-4-fluorophenyl)-N,N-dimethylmethanamine] | 1798 | > 50
11 | Fc1ccc(-c2cn(Cc3ccc(-c4nnc(C(F)F)o4)cn3)nn2)cc1CN1CCCC1 [Compound 22, 2-(difluoromethyl)-5-(6-((4-(4-fluoro-3-(pyrrolidin-1-ylmethyl)phenyl)-1H-1,2,3-triazol-1-yl)methyl)pyridin-3-yl)-1,3,4-oxadiazole] | 3401 | > 50
12 | CN(C)Cc1cc(-c2cn(Cc3ccc(-c4nnc(C(F)F)o4)cn3)nn2)ccc1F [Compound 23, 1-(5-(1-((5-(5-(difluoromethyl)-1,3,4-oxadiazol-2-yl)pyridin-2-yl)methyl)-1H-1,2,3-triazol-4-yl)-2-fluorophenyl)-N,N-dimethylmethanamine] | 2702 | > 50

Further lines, results first:

Row | HDAC6 selectivity (fold) [1] [fold] | IC50 [2] [µM] | SMILES
13 | 1428 | > 50 | CC1CCN(Cc2ccc(-c3cn(Cc4ccc(-c5nnc(C(F)F)o5)cn4)nn3)nc2)CC1 [Compound 4, 2-(difluoromethyl)-5-(6-((4-(5-((4-methylpiperidin-1-yl)methyl)pyridin-2-yl)-1H-1,2,3-triazol-1-yl)methyl)pyridin-3-yl)-1,3,4-oxadiazole]
14 | 1730 | > 50 | CC1(C)CCN(Cc2ccc(-c3cn(Cc4ccc(-c5nnc(C(F)F)o5)cn4)nn3)cn2)CC1 [Compound 6, 2-(difluoromethyl)-5-(6-((4-(6-((4,4-dimethylpiperidin-1-yl)methyl)pyridin-3-yl)-1H-1,2,3-triazol-1-yl)methyl)pyridin-3-yl)-1,3,4-oxadiazole]
15 | 1811 | > 50 | FC(F)c1nnc(-c2ccc(Cn3cc(-c4csc(CN5CC[C@@H](F)C5)c4)nn3)nc2)o1 [Compound 14, (R)-2-(difluoromethyl)-5-(6-((4-(5-((3-fluoropyrrolidin-1-yl)methyl)thiophen-3-yl)-1H-1,2,3-triazol-1-yl)methyl)pyridin-3-yl)-1,3,4-oxadiazole]
16 | 1237 | > 50 | FC(F)c1nnc(-c2ccc(Cn3cc(-c4csc(CN5CCC(F)(F)CC5)c4)nn3)nc2)o1 [Compound 16, 2-(difluoromethyl)-5-(6-((4-(5-((4,4-difluoropiperidin-1-yl)methyl)thiophen-3-yl)-1H-1,2,3-triazol-1-yl)methyl)pyridin-3-yl)-1,3,4-oxadiazole]
17 | 1492 | > 50 | CC1CCN(Cc2ccc(F)c(-c3cn(Cc4ccc(-c5nnc(C(F)F)o5)cn4)nn3)c2)CC1 [Compound 19, 2-(difluoromethyl)-5-(6-((4-(2-fluoro-5-((4-methylpiperidin-1-yl)methyl)phenyl)-1H-1,2,3-triazol-1-yl)methyl)pyridin-3-yl)-1,3,4-oxadiazole]
18 | 2577 | > 50 | Fc1ccc(-c2cn(Cc3ccc(-c4nnc(C(F)F)o4)cn3)nn2)cc1CN1CCCCC1 [Compound 24, 2-(difluoromethyl)-5-(6-((4-(4-fluoro-3-(piperidin-1-ylmethyl)phenyl)-1H-1,2,3-triazol-1-yl)methyl)pyridin-3-yl)-1,3,4-oxadiazole]
19 | 2890 | > 50 | CC1CCN(Cc2cc(-c3cn(Cc4ccc(-c5nnc(C(F)F)o5)cn4)nn3)ccc2F)CC1 [Compound 25, 2-(difluoromethyl)-5-(6-((4-(4-fluoro-3-((4-methylpiperidin-1-yl)methyl)phenyl)-1H-1,2,3-triazol-1-yl)methyl)pyridin-3-yl)-1,3,4-oxadiazole]
